Measured values: article PMC12332157, “A preclinical study on the influence of linkers in [^68Ga]Ga-NOTA-X-RM26 radiotracers for PET imaging of GRPR expression” (EJNMMI Research, 2025)
Like-named read-outs stand apart in the source and are kept apart here. Starred links: 1 amine or outer side, 2 acyl side, 3 side chain; linkers in the order of their positions; H or OH if unused. Non-standard residues stand in square brackets, D forms with d. Residues, ends and D or L forms follow the SMILES beside them. *: point of attachment. NOTA = O=C(O)CN1CCN(CC(=O)O)CCN(CC(=O)*)CC1; Sta = CC(C)C[C@H](N)[C@@H](O)CC(=O)O; X2 = O=C(COc1cccc(CN[*:1])c1)[*:2]; X1 = O=C(Cc1ccccc1CCN[*:1])[*:2]

How the values were obtained:
[1] = Octanol-water distribution coefficient (LogD); type: physicochemical; settings: n-octanol/PBS; n = 3; mean ± sd
Description: Octanol-water distribution coefficient (LogD) was determined by adding 10 pmol of radiopeptide to an Eppendorf tube containing 500 µL of phosphate-buffered saline (PBS) and 500 µL of n-octanol. Each tube was vortexed for 2 min and centrifuged at 6000 g for 5 min. Three 100 µL fractions were collected from each phase, and their radioactivity was measured.

[2] = Biodistribution in BALB/c nu/nu mice bearing PC-3 xenografts; type: in vivo; settings: female, BALB/c nu/nu, mouse, iv, total radioactivity
Description: Female BALB/c nu/nu mice of 18–22 g weight were used in the study. All procedures with animals were conducted in accordance with the EU Directive 2010/63/EU for animal experiments and Swedish national legislation concerning the protection of laboratory animals. The experiments were approved by the ethics committee for animal research in Uppsala (Sweden) with permit number 5.8.18–00473/2021. Animals were housed in individually ventilated cages, under a 12-h light/dark cycle with free access to food and water.
For tumor inoculation, 8·10^6 PC-3 cells in 100 µL PBS were injected subcutaneously into the right hind leg of mice. Mouse weight and tumor size were measured every 2–3 days, and tumor volume was estimated by ellipsoid approximation. A predefined humane endpoint of the experiment was either a 15% weight loss or a tumor volume of 1000 mm^3, neither of which was reached.
Four weeks after tumor cell implantation, mice were randomized and divided into 6 groups (4 animals / group): 3 of them received treatment with ^68Ga-radiolabeled peptides, while the other 3 received the same peptides in addition to 5 nmol of non-labeled NOTA-PEG2-RM26 peptide for GRPR-blocking. Peptides were injected intravenously via the tail veins at a dose of 50 pmol (700 kBq radioactivity dose).
At 2 h post injection, mice were sacrificed by overdose of Ketamine/Xylazine anesthesia, and blood was collected by heart puncture. Then, liver, spleen, lungs, pancreas, kidneys, small intestine, stomach, tail, femur bones, tumor and muscle from the opposite legs were collected, weighed, and radioactivity was measured using a Wizard 2480 gamma counter. Data are presented as percentages of injected activity per gram of tissue (%IA/g).

[3] = Complex stability of 68Ga-labeled peptides in PBS or EDTA solution in PBS (iTLC); type: physicochemical; settings: n = 3, mean ± sd; for remaining at 1 h, 1 µM: PBS buffer, pH 7.4, incubation at 37 °C for 1 h in PBS; for Stability in PBS with EDTA: incubation at 37 °C for 1 h in PBS with 1000-fold molar excess of EDTA, in % (unit assumed)
[4] = blood, 50 pmol, 2 h p.i., i.v., read-out: Radionuclide concentration, Blood
[5] = blood, Blockade (co-injection of NOTA-PEG2-RM26), 2 h, read-out: Radionuclide concentration, Blood
[6] = bone, 50 pmol, 2 h p.i., i.v., read-out: Radionuclide concentration, Bone
[7] = bone, Blockade (co-injection of NOTA-PEG2-RM26), 2 h, read-out: Radionuclide concentration, Bone
[8] = carcass, 50 pmol, 2 h p.i., i.v., read-out: Radionuclide quantity, Carcass
[9] = carcass, Blockade (co-injection of NOTA-PEG2-RM26), 2 h, read-out: Radionuclide quantity, Carcass
[10] = gastrointestinal tract, 50 pmol, 2 h p.i., i.v., read-out: Radionuclide quantity, Gastrointestinal tract
[11] = gastrointestinal tract, Blockade (co-injection of NOTA-PEG2-RM26), 2 h, read-out: Radionuclide quantity, Gastrointestinal tract
[12] = kidneys, 50 pmol, 2 h p.i., i.v., read-out: Radionuclide concentration, Kidneys
[13] = kidneys, Blockade (co-injection of NOTA-PEG2-RM26), 2 h, read-out: Radionuclide concentration, Kidneys
[14] = liver, 50 pmol, 2 h p.i., i.v., read-out: Radionuclide concentration, Liver
[15] = liver, Blockade (co-injection of NOTA-PEG2-RM26), 2 h, read-out: Radionuclide concentration, Liver
[16] = lungs, 50 pmol, 2 h p.i., i.v., read-out: Radionuclide concentration, Lungs
[17] = lungs, Blockade (co-injection of NOTA-PEG2-RM26), 2 h, read-out: Radionuclide concentration, Lungs
[18] = muscle, 50 pmol, 2 h p.i., i.v., read-out: Radionuclide concentration, Muscle
[19] = muscle, Blockade (co-injection of NOTA-PEG2-RM26), 2 h, read-out: Radionuclide concentration, Muscle
[20] = pancreas, 50 pmol, 2 h p.i., i.v., read-out: Radionuclide concentration, Pancreas
[21] = pancreas, Blockade (co-injection of NOTA-PEG2-RM26), 2 h, read-out: Radionuclide concentration, Pancreas
[22] = small intestine, 50 pmol, 2 h p.i., i.v., read-out: Radionuclide concentration, Small Intestines
[23] = small intestine, Blockade (co-injection of NOTA-PEG2-RM26), 2 h, read-out: Radionuclide concentration, Small Intestines
[24] = spleen, 50 pmol, 2 h p.i., i.v., read-out: Radionuclide concentration, Spleen
[25] = spleen, Blockade (co-injection of NOTA-PEG2-RM26), 2 h, read-out: Radionuclide concentration, Spleen
[26] = stomach, 50 pmol, 2 h p.i., i.v., read-out: Radionuclide concentration, Stomach
[27] = stomach, Blockade (co-injection of NOTA-PEG2-RM26), 2 h, read-out: Radionuclide concentration, Stomach
[28] = total (sum of the measured activities), 50 pmol, 2 h p.i., i.v., sum of the measured activities, read-out: Radionuclide quantity, Total
[29] = total, Blockade (co-injection of NOTA-PEG2-RM26), 2 h, read-out: Radionuclide quantity, Total
[30] = tumor (PC-3 xenograft), 50 pmol, 2 h p.i., i.v., PC-3 xenograft, read-out: Radionuclide concentration, Tumor
[31] = tumor (PC-3 xenograft), Blockade (co-injection of NOTA-PEG2-RM26), 2 h, read-out: Radionuclide concentration, Tumor

SMILES	logD [1]	tissue uptake at 2 h [2, 4] [%ID/g]	tissue uptake at 2 h [2, 5] [%ID/g]	tissue uptake at 2 h [2, 6] [%ID/g]	tissue uptake at 2 h [2, 7] [%ID/g]	tissue uptake dose at 2 h [2, 8] [%ID]	tissue uptake dose at 2 h [2, 9] [%ID]	tissue uptake dose at 2 h [2, 10] [%ID]	tissue uptake dose at 2 h [2, 11] [%ID]	tissue uptake at 2 h [2, 12] [%ID/g]	tissue uptake at 2 h [2, 13] [%ID/g]	tissue uptake at 2 h [2, 14] [%ID/g]	tissue uptake at 2 h [2, 15] [%ID/g]	tissue uptake at 2 h [2, 16] [%ID/g]	tissue uptake at 2 h [2, 17] [%ID/g]	tissue uptake at 2 h [2, 18] [%ID/g]	tissue uptake at 2 h [2, 19] [%ID/g]	tissue uptake at 2 h [2, 20] [%ID/g]	tissue uptake at 2 h [2, 21] [%ID/g]	tissue uptake at 2 h [2, 22] [%ID/g]	also measured
CC(=O)N[C@@H](CCCCNC(=O)CN1CCN(CC(=O)O)CCN(CC(=O)O)CC1)C(=O)NCCc1ccccc1CC(=O)N[C@H](Cc1ccccc1)C(=O)N[C@@H](CCC(N)=O)C(=O)N[C@@H](Cc1c[nH]c2ccccc12)C(=O)N[C@@H](C)C(=O)N[C@H](C(=O)NCC(=O)N[C@@H](Cc1c[nH]cn1)C(=O)N[C@@H](CC(C)C)[C@@H](O)CC(=O)N[C@@H](CC(C)C)C(N)=O)C(C)C [[^68Ga]Ga-NOTA-oET-RM26, metal not drawn] (Ac-K(NOTA)[X1][dF]QWAVGH[Sta]L-NH2)	-0.97 ± 0.01	0.54 ± 0.01	0.31 ± 0.04	0.44 ± 0.04	0.33 ± 0.07	4.1 ± 1.1	3.1 ± 1.8	5.9 ± 0.5	3.5 ± 0.7	5.9 ± 0.6	3.3 ± 2.3	1.9 ± 0.2	1.3 ± 0.1	0.45 ± 0.27	0.37 ± 0.02	0.15 ± 0.01	0.15 ± 0.13	11.7 ± 2.4	1.2 ± 0.2	2.4 ± 0.4	tissue uptake at 2 h [2, 23]: 0.33 ± 0.24 %ID/g; tissue uptake at 2 h [2, 24]: 0.46 ± 0.06 %ID/g; tissue uptake at 2 h [2, 25]: 0.28 ± 0.07 %ID/g; tissue uptake at 2 h [2, 26]: 2.6 ± 0.6 %ID/g; tissue uptake at 2 h [2, 27]: 0.55 ± 0.19 %ID/g; tissue uptake dose at 2 h [2, 28]: 16.3 ± 1.6 %ID; tissue uptake dose at 2 h [2, 29]: 8.5 ± 3 %ID; tissue uptake at 2 h [2, 30]: 11.2 ± 3.4 %ID/g; tissue uptake at 2 h [2, 31]: 1.3 ± 0.2 %ID/g; remaining at 1 h, 1 µM [3]: 95 ± 2.9%; Stability in PBS with EDTA [3]: 92.6 ± 4.7
CC(=O)N[C@@H](CCCCNC(=O)CN1CCN(CC(=O)O)CCN(CC(=O)O)CC1)C(=O)NCc1cccc(OCC(=O)N[C@H](Cc2ccccc2)C(=O)N[C@@H](CCC(N)=O)C(=O)N[C@@H](Cc2c[nH]c3ccccc23)C(=O)N[C@@H](C)C(=O)N[C@H](C(=O)NCC(=O)N[C@@H](Cc2c[nH]cn2)C(=O)N[C@@H](CC(C)C)[C@@H](O)CC(=O)N[C@@H](CC(C)C)C(N)=O)C(C)C)c1 [[^68Ga]Ga-NOTA-mMA-RM26, metal not drawn] (Ac-K(NOTA)[X2][dF]QWAVGH[Sta]L-NH2)	-1.21 ± 0.03	0.39 ± 0.08	0.42 ± 0.21	0.28 ± 0.06	0.25 ± 0.03	2.8 ± 0.4	4.6 ± 0.7	4 ± 0.4	3.1 ± 1.7	8.4 ± 1.4	7.6 ± 0.7	3.7 ± 1.4	2.2 ± 0.5	7.1 ± 4.2	3.4 ± 0.5	0.12 ± 0.02	0.12 ± 0.05	10.5 ± 3.8	1.7 ± 0.9	1.7 ± 0.7	tissue uptake at 2 h [2, 23]: 0.91 ± 0.48 %ID/g; tissue uptake at 2 h [2, 24]: 1.1 ± 0.4 %ID/g; tissue uptake at 2 h [2, 25]: 1.1 ± 0.8 %ID/g; tissue uptake at 2 h [2, 26]: 2.5 ± 0.6 %ID/g; tissue uptake at 2 h [2, 27]: 0.77 ± 0.51 %ID/g; tissue uptake dose at 2 h [2, 28]: 16.5 ± 3.1 %ID; tissue uptake dose at 2 h [2, 29]: 12.6 ± 2 %ID; tissue uptake at 2 h [2, 30]: 12.3 ± 2.8 %ID/g; tissue uptake at 2 h [2, 31]: 1.8 ± 0.2 %ID/g; remaining at 1 h, 1 µM [3]: 92.8 ± 3.3%; Stability in PBS with EDTA [3]: 90.6 ± 4.1
